Measured values from US10980809B2, “Urea-substituted aromatic ring-linked dioxane-quinazoline and -linked dioxane-quinoline compounds, preparation method therefor and use thereof” (BEIJING SCITECH-MQ PHARMACEUTICALS LIMITED, priority 2017, dated 2021).

Each compound was assayed against VEGFR-2 kinase (Homo sapiens (Human), UniProt P35968) (assay: Test of small molecule compounds for inhibiting the activity of VEGFR-2 kinase). Conditions: class symbols A-D.
Chain of VEGFR-2 kinase (P35968 20-1356): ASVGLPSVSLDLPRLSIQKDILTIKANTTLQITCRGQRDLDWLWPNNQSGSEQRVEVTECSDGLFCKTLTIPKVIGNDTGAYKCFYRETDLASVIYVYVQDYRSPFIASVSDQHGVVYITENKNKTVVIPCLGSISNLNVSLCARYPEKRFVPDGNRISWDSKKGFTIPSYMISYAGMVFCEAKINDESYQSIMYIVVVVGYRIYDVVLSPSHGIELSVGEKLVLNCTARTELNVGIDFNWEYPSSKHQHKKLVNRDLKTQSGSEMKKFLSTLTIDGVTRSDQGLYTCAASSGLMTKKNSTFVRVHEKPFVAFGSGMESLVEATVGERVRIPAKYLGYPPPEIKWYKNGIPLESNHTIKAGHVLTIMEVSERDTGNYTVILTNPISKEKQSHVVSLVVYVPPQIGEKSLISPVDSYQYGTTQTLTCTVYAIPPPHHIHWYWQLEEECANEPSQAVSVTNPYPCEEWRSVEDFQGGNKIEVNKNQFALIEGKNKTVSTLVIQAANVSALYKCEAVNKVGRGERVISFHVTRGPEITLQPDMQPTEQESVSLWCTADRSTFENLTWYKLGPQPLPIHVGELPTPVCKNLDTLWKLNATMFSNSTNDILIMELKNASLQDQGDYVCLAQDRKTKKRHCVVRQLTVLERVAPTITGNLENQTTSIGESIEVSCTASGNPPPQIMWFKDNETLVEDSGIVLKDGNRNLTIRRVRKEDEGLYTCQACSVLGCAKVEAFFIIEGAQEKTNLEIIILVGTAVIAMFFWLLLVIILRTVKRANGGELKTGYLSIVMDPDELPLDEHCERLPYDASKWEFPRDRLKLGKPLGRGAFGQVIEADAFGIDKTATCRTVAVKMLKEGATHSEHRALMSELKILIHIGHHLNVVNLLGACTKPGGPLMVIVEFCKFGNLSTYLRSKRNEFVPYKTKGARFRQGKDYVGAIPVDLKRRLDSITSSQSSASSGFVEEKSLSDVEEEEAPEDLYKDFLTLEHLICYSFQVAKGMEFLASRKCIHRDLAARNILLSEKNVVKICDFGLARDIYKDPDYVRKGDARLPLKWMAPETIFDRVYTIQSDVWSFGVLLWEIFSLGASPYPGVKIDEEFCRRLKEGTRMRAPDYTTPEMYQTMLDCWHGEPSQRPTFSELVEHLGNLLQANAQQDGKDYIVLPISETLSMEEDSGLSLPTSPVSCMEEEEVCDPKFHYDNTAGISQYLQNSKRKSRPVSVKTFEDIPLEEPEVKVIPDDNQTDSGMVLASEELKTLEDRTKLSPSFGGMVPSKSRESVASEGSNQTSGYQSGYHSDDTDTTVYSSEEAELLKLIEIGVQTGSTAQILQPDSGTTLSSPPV
Format: biochemical
Protocol: Test of Small Molecule Compounds for Inhibiting the Activity of VEGFR-2 Kinase
The test was carried out as follows:
2. 2.5 μl of the gradient-diluted compounds was taken with a transfer pipette to a 384-well plate,
3. Addition of enzyme: 5 μl of 2×VEGFR-2 kinase was taken with a transfer pipette to the corresponding reaction well of the 384-well plate, which was mixed and pre-reacted at room temperature for 30 min,
5. Negative control: 2.5 μl/well 4× substrate/ATP Mix and 7.5 μl 1× Kinase Assay Buffer were added to the wells of the 384-well plate,
Positive control: 2.5 μl/well 4× substrate/ATP Mix, 2.5 μl/well 1× Kinase Assay Buffer containing 4% DMSO, and 5 μl/well 2×VEGFR-2 solution were added to the 384-well plate. The final concentration of DMSO in the reaction system is […],
6. The mixture was mixed well and then centrifuged and reacted at room temperature in dark for 60 min,
9. The 384-well plate was placed into the Envision plate reader and the signal was detected using the appropriate program,
With `CSCCOc1cc2ncnc(Nc3ccc(NC(=O)NC4CC4)c(Cl)c3)c2c2c1OCCO2` [Example 84, 1-(2-chloro-4-((5-(2-methylthioethoxy)-2,3-dihydro-[1,4]dioxino[2,3-f]quinazolin-10-yl)amino)phenyl)-3-cyclopropylurea] the IC50 was less than 50 nM. For `O=C(Nc1ccc(Oc2ncnc3cc(OCCN4CCCC4)c4c(c23)OCCO4)cc1)Nc1cc(C(F)(F)F)ccc1F` [Example 76, 1-(2-fluoro-5-(trifluoromethyl)phenyl)-3-(4-((5-(2-(tetrahydropyrrol-1-yl)ethoxy)-2,3-dihydro-[1,4]dioxino[2,3-f]quinazolin-10-yl)oxy)phenyl)urea], the IC50 was greater than 5000 nM. `CN(C)CCCOc1cc2ncnc(Nc3ccc(NC(=O)NC4CC4)c(Cl)c3)c2c2c1OCCO2` [Example 82, 1-(2-chloro-4-((5-(3-(dimethylamino)propoxy)-2,3-dihydro-[1,4]dioxino[2,3-f]quinazolin-10-yl)amino)phenyl)-3-cyclopropylurea] gave an IC50 of less than 50 nM. Compound `COc1cc2nccc(Oc3ccc(NC(=O)Nc4ccc(Cl)c(C(F)(F)F)c4)c(F)c3)c2c2c1OCCO2` [Example 92, 1-(4-chloro-3-(trifluoromethyl)phenyl)-3-(2-fluoro-4-((5-methoxy-2,3-dihydro-[1,4]dioxino[2,3-f]quinoline-10-yl)oxy)phenyl)urea] has an IC50 of 50 to 500 nM. Compound `COCCOc1cc2ncnc(Nc3ccc(NC(=O)Nc4cccc(OC)c4)c(Cl)c3)c2c2c1OCCO2` [Example 35, 1-(2-chloro-4-((5-(2-methoxyethoxy)-2,3-dihydro-[1,4]dioxino[2,3-f]quinazolin-10-yl)amino)phenyl)-3-(3-methoxyphenyl)urea] has an IC50 of less than 50 nM. With `O=C(Nc1ccc(Oc2ncnc3cc(OCCCN4CCOCC4)c4c(c23)OCCO4)cc1)Nc1ccc(F)c(C(F)(F)F)c1` [Example 75, 1-(4-fluoro-3-(trifluoromethyl)phenyl)-3-(4-((5-(3-morpholinopropoxy)-2,3-dihydro-[1,4]dioxino[2,3-f]quinazolin-10-yl)oxy)phenyl)urea] the IC50 was less than 50 nM. Compound `O=C(Nc1ccc(Oc2ncnc3cc(OC4CCOC4)c4c(c23)OCCO4)cc1)Nc1cc(C(F)(F)F)ccc1F` (stereo not shown) [Example 80, 1-(2-fluoro-5-(trifluoromethyl)phenyl)-3-(4-((5-((tetrahydrofuran-3-yl)oxy)-2,3-dihydro-[1,4]dioxino[2,3-f]quinazolin-10-yl)oxy)phenyl)urea] has an IC50 of less than 50 nM. `COCCOc1cc2ncnc(Nc3ccc(NC(=O)Nc4cc(C)no4)c(Cl)c3)c2c2c1OCCO2` [Example 39, 1-(2-chloro-4-((5-(2-methoxyethoxy)-2,3-dihydro-[1,4]dioxino[2,3-f]quinazolin-10-yl)amino)phenyl)-3-(3-methylisoxazol-5-yl)urea] gave an IC50 of less than 50 nM. In the case of `O=C(Nc1ccc(Cl)c(C(F)(F)F)c1)Nc1ccc(Oc2ncnc3cc(OCCCN4CCOCC4)c4c(c23)OCCO4)cc1F` [Example 69, 1-(4-chloro-3-(trifluoromethyl)phenyl)-3-(2-fluoro-4-((5-(3-morpholinopropoxy)-2,3-dihydro-[1,4]dioxino[2,3-f]quinazolin-10-yl)oxy)phenyl)urea], the IC50 is reported as less than 50 nM. `COc1cc2ncnc(Nc3ccc(NC(=O)NCCC(C)C)c(Cl)c3)c2c2c1OCCO2` [Example 30, 1-(2-chloro-4-((5-methoxy-2,3-dihydro-[1,4]dioxino[2,3-f]quinazolin-10-yl)amino)phenyl)-3-isopentylurea] was tested, and the IC50 was less than 50 nM. For `O=C(Nc1ccc(Oc2ncnc3cc(OCCCN4CCOCC4)c4c(c23)OCCO4)cc1)Nc1cccc2ccccc12` [Example 31, 1-(4-((5-(3-morpholinopropoxy)-2,3-dihydro-[1,4]dioxino[2,3-f]quinazolin-10-yl)oxy)phenyl)-3-(naphthalen-1-yl)urea], the IC50 was less than 50 nM. `CN(C)CCOc1cc2ncnc(Nc3ccc(NC(=O)NC4CC4)c(Cl)c3)c2c2c1OCCO2` [Example 87] gave an IC50 of 50 to 500 nM. In the case of `COc1cc2ncnc(Nc3ccc(NC(=O)NC4CCCC4)c(Cl)c3)c2c2c1OCCO2` [Example 28, 1-(2-chloro-4-((5-methoxy-2,3-dihydro-[1,4]dioxino[2,3-f]quinazolin-10-yl)amino)phenyl)-3-cyclopentylurea], the IC50 is reported as 50 to 500 nM. Work on `COc1cc2nccc(Oc3ccc(NC(=O)Nc4ccc(Cl)c(C(F)(F)F)c4)cc3)c2c2c1OCCO2` [Example 90, 1-(4-chloro-3-(trifluoromethyl)phenyl)-3-(4-((5-methoxy-2,3-dihydro-[1,4]dioxino[2,3-f]quinolin-10-yl)oxy)phenyl)urea] yielded an IC50 of less than 50 nM. `COCCOc1cc2ncnc(Oc3ccc(NC(=O)Nc4ccnc(OC)c4)cc3Cl)c2c2c1OCCO2` [Example 53, 1-(3-chloro-4-((5-(2-methoxyethoxy)-2,3-dihydro-[1,4]dioxino[2,3-f]quinazolin-10-yl)oxy)phenyl)-3-(2-methoxypyridin-4-yl)urea] showed an IC50 of less than 50 nM. `COc1cccc(NC(=O)Nc2ccc(Nc3ncnc4cc(OC)c5c(c34)OCCO5)cc2)c1` [Example 3, 1-(4-((5-methoxy-2,3-dihydro-[1,4]dioxino[2,3-f]quinazolin-10-yl)amino)phenyl)-3-(3-methoxyphenyl)urea] gave an IC50 of 50 to 500 nM. `COCCOc1cc2ncnc(Oc3ccc(NC(=O)Nc4ccnc(OC)c4)cc3)c2c2c1OCCO2` [Example 52, 1-(4-((5-(2-methoxyethoxy)-2,3-dihydro-[1,4]dioxino[2,3-f]quinazolin-10-yl)oxy)phenyl)-3-(2-methoxypyridin-4-yl)urea] showed an IC50 of less than 50 nM. `COc1cc2ncnc(Nc3ccc(NC(=O)NC4CCC4)c(Cl)c3)c2c2c1OCCO2` [Example 27, 1-(2-chloro-4-((5-methoxy-2,3-dihydro-[1,4]dioxino[2,3-f]quinazolin-10-yl)amino)phenyl)-3-cyclobutylurea] gave an IC50 of less than 50 nM. `COc1cc2ncnc(Oc3ccc(NC(=O)Nc4ccccc4)c(Cl)c3)c2c2c1OCCO2` [Example 14, 1-(2-chloro-4-((5-methoxy-2,3-dihydro-[1,4]dioxino[2,3-f]quinazolin-10-yl)oxy)phenyl)-3-phenylurea] showed an IC50 of less than 50 nM. `COCCOc1cc2ncnc(Oc3ccc(NC(=O)NC4CCCC4)c(Cl)c3)c2c2c1OCCO2` [Example 55, 1-(2-chloro-4-((5-(2-methoxyethoxy)-2,3-dihydro-[1,4]dioxino[2,3-f]quinazolin-10-yl)oxy)phenyl)-3-cyclopentylurea] showed an IC50 of less than 50 nM. For `COCCCOc1cc2ncnc(Oc3ccc(NC(=O)NC4CC4)c(Cl)c3)c2c2c1OCCO2` [Example 86, 1-(2-chloro-4-(((5-(3-methoxy)propoxy)-2,3-dihydro-[1,4]dioxino[2,3-f]quinazolin-10-yl)oxy)phenyl)-3-cyclopropylurea], the IC50 was less than 50 nM. Work on `COc1cc2ncnc(Nc3ccc(NC(=O)Nc4ccc(F)cc4)c(Cl)c3)c2c2c1OCCO2` [Example 7, 1-(2-chloro-4-((5-methoxy-2,3-dihydro-[1,4]dioxino[2,3-f]quinazolin-10-yl)amino)phenyl)-3-(4-fluorophenyl)urea] yielded an IC50 of less than 50 nM. `COc1cc2ncnc(Nc3ccc(NC(=O)NC4CCCCC4)c(Cl)c3)c2c2c1OCCO2` [Example 29, 1-(2-chloro-4-((5-methoxy-2,3-dihydro-[1,4]dioxino[2,3-f]quinazolin-10-yl)amino)phenyl)-3-cyclohexylurea] gave an IC50 of 500 to 5000 nM. For `COc1cc2ncnc(Oc3ccc(NC(=O)NC4CCCCC4)c(Cl)c3)c2c2c1OCCO2` [Example 33, 1-(2-chloro-4-((5-methoxy-2,3-dihydro-[1,4]dioxino[2,3-f]quinazolin-10-yl)oxy)phenyl)-3-cyclohexylurea], the IC50 was less than 50 nM. `COCCOc1cc2ncnc(Nc3ccc(NC(=O)NC4CC4)c(Cl)c3)c2c2c1OCCO2` [Example 34, 1-(2-chloro-4-((5-(2-methoxyethoxy)-2,3-dihydro-[1,4]dioxino[2,3-f]quinazolin-10-yl)amino)phenyl)-3-cyclopropylurea] showed an IC50 of less than 50 nM. For `COCCOc1cc2ncnc(Oc3ccc(NC(=O)NC4CCCCC4)c(Cl)c3)c2c2c1OCCO2` [Example 56, 1-(2-chloro-4-((5-(2-methoxyethoxy)-2,3-dihydro-[1,4]dioxino[2,3-f]quinazolin-10-yl)oxy)phenyl)-3-cyclohexylurea], the IC50 was less than 50 nM. `COc1cc2ncnc(Nc3ccc(NC(=O)NC4CC4)cc3)c2c2c1OCCO2` [Example 1, 1-(4-((5-methoxy-2,3-dihydro-[1,4]dioxino[2,3-f]quinazolin-10-yl)amino)phenyl)-3-cyclopropylurea] was tested, and the IC50 was 50 to 500 nM. `COc1cccc(NC(=O)Nc2ccc(Oc3ncnc4cc(OC)c5c(c34)OCCO5)c(Cl)c2)c1` [Example 24, 1-(3-chloro-4-((5-methoxy-2,3-dihydro-[1,4]dioxino[2,3-f]quinazolin-10-yl)oxy)phenyl)-3-(3-methoxyphenyl)urea] was tested, and the IC50 was less than 50 nM. `COCCOc1cc2ncnc(Nc3ccc(NC(=O)Nc4ccccc4)c(Cl)c3)c2c2c1OCCO2` [Example 37, 1-(2-chloro-4-((5-(2-methoxyethoxy)-2,3-dihydro-[1,4]dioxino[2,3-f]quinazolin-10-yl)amino)phenyl)-3-phenylurea] was tested, and the IC50 was less than 50 nM. Work on `COCCOc1cc2ncnc(Nc3ccc(NC(=O)Nc4ccc(F)cc4)c(Cl)c3)c2c2c1OCCO2` [Example 38, 1-(2-chloro-4-((5-(2-methoxyethoxy)-2,3-dihydro-[1,4]dioxino[2,3-f]quinazolin-10-yl)amino)phenyl)-3-(4-fluorophenyl)urea] yielded an IC50 of less than 50 nM. Work on `COc1cc2ncnc(Oc3ccc(NC(=O)NC4CCCC4)c(Cl)c3)c2c2c1OCCO2` [Example 32, 1-(2-chloro-4-((5-methoxy-2,3-dihydro-[1,4]dioxino[2,3-f]quinazolin-10-yl)oxy)phenyl)-3-cyclopentylurea] yielded an IC50 of less than 50 nM.
